US11242337B2, “Compounds useful for treating gastrointestinal tract disorders” (Ardelyx, Inc., priority 2017, dated 2022)

Experiments:
NHE3 [1] = molecular target: T1, NHE3 (Homo sapiens, UniProt P48764); assay: Cell-based assay of NHE-3 activity (pre-incubation inhibition), human; conditions: human Preincubation; for pIC50: 0-30 μM test compound
T1 construct: expressed in transfected cells
T1 sequence (P48764 26-834): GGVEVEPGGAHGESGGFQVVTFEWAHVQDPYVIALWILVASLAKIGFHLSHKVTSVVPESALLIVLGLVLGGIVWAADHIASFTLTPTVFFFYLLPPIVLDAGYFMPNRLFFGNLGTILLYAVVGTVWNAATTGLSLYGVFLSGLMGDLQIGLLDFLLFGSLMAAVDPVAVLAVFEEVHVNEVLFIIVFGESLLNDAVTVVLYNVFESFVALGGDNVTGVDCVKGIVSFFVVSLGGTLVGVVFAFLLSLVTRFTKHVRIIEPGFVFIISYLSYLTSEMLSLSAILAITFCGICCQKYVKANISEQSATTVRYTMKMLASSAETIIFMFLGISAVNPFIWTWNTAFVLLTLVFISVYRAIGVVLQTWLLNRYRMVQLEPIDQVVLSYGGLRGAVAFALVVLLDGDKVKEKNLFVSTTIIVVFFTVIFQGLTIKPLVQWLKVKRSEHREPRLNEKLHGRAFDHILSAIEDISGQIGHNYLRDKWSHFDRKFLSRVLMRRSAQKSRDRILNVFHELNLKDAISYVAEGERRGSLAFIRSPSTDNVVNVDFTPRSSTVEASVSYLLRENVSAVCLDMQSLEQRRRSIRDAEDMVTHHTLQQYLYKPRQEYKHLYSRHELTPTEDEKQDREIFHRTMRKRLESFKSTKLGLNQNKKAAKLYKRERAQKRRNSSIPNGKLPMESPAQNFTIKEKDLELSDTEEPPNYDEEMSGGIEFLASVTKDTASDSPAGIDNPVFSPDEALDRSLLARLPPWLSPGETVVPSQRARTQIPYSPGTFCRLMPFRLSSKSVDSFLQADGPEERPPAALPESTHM
T1 sequence (Q99653 2-195 partner limits assumed): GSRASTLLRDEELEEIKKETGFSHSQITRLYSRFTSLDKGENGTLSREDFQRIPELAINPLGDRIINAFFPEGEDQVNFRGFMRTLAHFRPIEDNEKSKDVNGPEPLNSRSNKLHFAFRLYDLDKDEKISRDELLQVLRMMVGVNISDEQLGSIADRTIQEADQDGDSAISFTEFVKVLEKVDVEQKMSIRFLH
How it was run: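 Activity read as initial rate of BCECF fluorescence ratio change per minute (ex 439/505, em 538 nm) following NH4Cl prepulse acid loading. Compound (0–30 μM) present during 10 min Na+-free acidification at room temperature; cells were PS120 fibroblasts stably co-expressing human NHE3 and NHERF2.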

NHE3 [2] = molecular target: T1, NHE3; assay: Cell-based assay of NHE-3 activity (persistent inhibition), human; conditions: human Persistence, 60 min incubation then washout
How it was run: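 Persistent inhibition: compound (0-30 μM, 60 min, RT, NaCl-HEPES pH 7.4) removed before assay. Human NHE3/NHERF2 PS120 cells were then BCECF-loaded during NH4Cl pulse (30 min, 37 °C), acidified in Na+-free buffer, and Na+ added 10 min after washout; antiport measured as initial fluorescence-ratio change per minute.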

% inhibition (NHE3 [1]) | % inhibition (NHE3 [2]) | pIC50 (NHE3 [1]) | pIC50 (NHE3 [2]) | Compound
C (>70%) | C (>70%) | C (NHE3 pIC50 > 7) | C (NHE3 pIC50 > 7) | Cc1cc(S(=O)(=O)NCCOCCOCCNC(=O)NCCCCNC(=O)NCCOCCOCCNS(=O)(=O)c2ccc(O[C@H]3c4cc(Cl)cc(C)c4C[C@@H]3N(C)C)c(C)c2)ccc1O[C@H]1c2cc(Cl)cc(C)c2C[C@@H]1N(C)C [Example 17, 3-[2-(2-[2-[(4-[[(1S,2S)-6-Chloro-2-(dimethylamino)-4-methyl-2,3-dihydro-1H-inden-1-yl]oxy]-3-methylbenzene)sulfonamido]ethoxy]ethoxy)ethyl]-1-[4-([[2-(2-[2-[(4-[[(1S,2S)-6-chloro-2-(dimethylamino)-4-methyl-2,3-dihydro-1H-inden-1-yl]oxy]-3-methylbenzene)sulfonamido]ethoxy]ethoxy)ethyl]carbamoyl]amino)butyl]urea]
C (>70%) | C (>70%) | C (NHE3 pIC50 > 7) | C (NHE3 pIC50 > 7) | CN(C)[C@H]1Cc2c(Cl)cc(Cl)cc2[C@@H]1Oc1ccc(S(=O)(=O)NCCOCCOCCNC(=O)NCCCCNC(=O)NCCOCCOCCNS(=O)(=O)c2ccc(O[C@H]3c4cc(Cl)cc(Cl)c4C[C@@H]3N(C)C)c(F)c2)cc1F [Example 23, 3-[2-(2-[2-[(4-[[(1S,2S)-4,6-Dichloro-2-(dimethylamino)-2,3-dihydro-1H-inden-1-yl]oxy]-3-fluorobenzene)sulfonamido]ethoxy]ethoxy)ethyl]-1-[4-([[2-(2-[2-[(4-[[(1S,2S)-4,6-dichloro-2-(dimethylamino)-2,3-dihydro-1H-inden-1-yl]oxy]-3-fluorobenzene)sulfonamido]ethoxy]ethoxy)ethyl]carbamoyl]amino)butyl]urea; bis(trifluoroacetic acid)]
C (>70%) | C (>70%) | – | – | Cc1cc(Cl)cc2c1C[C@H](N(C)C)[C@H]2Oc1ccc(S(=O)(=O)NCCOCCOCCNC(=O)NCCCCNC(=O)NCCOCCOCCNS(=O)(=O)c2ccc(O[C@H]3c4cc(Cl)cc(C)c4C[C@@H]3N(C)C)c(F)c2)cc1F [Example 24, 3-[2-(2-[2-[(4-[[(1S,2S)-6-Chloro-2-(dimethylamino)-4-methyl-2,3-dihydro-1H-inden-1-yl]oxy]-3-fluorobenzene)sulfonamido]ethoxy]ethoxy)ethyl]-1-[4-([[2-(2-[2-[(4-[[(1S,2S)-6-chloro-2-(dimethylamino)-4-methyl-2,3-dihydro-1H-inden-1-yl]oxy]-3-fluorobenzene)sulfonamido]ethoxy]ethoxy)ethyl]carbamoyl]amino)butyl]urea]
C (>70%) | C (>70%) | – | – | Cc1cc(S(=O)(=O)NCCOCCOCCNC(=O)NCCCCNC(=O)NCCOCCOCCNS(=O)(=O)c2ccc(O[C@H]3c4cc(Cl)cc(Cl)c4C[C@@H]3N3CCC[C@@H](N(C)C)C3)c(C)c2)ccc1O[C@H]1c2cc(Cl)cc(Cl)c2C[C@@H]1N1CCC[C@@H](N(C)C)C1 [Example 26, 3-[2-(2-[2-[(4-[[(1S,2S)-4,6-Dichloro-2-[(3R)-3-(dimethylamino)piperidin-1-yl]-2,3-dihydro-1H-inden-1-yl]oxy]-3-methylbenzene)sulfonamido]ethoxy]ethoxy)ethyl]-1-[4-([[2-(2-[2-[4-[[(1S,2S)-4,6-dichloro-2-[(3R)-3-(dimethylamino)piperidin-1-yl]-2,3-dihydro-1H-inden-1-yl]oxy]-3-methylbenzenesulfonamido]ethoxy]ethoxy)ethyl]carbamoyl]amino)butyl]urea; bis(trifluoroacetic acid)]
C (>70%) | C (>70%) | C (NHE3 pIC50 > 7) | C (NHE3 pIC50 > 7) | Cc1cc(Cl)cc2c1C[C@H](N1CCC[C@@H](N(C)C)C1)[C@H]2Oc1ccc(S(=O)(=O)NCCOCCOCCNC(=O)NCCCCNC(=O)NCCOCCOCCNS(=O)(=O)c2ccc(O[C@H]3c4cc(Cl)cc(C)c4C[C@@H]3N3CCC[C@@H](N(C)C)C3)cc2)cc1 [Example 28, 3-[2-(2-[2-[(4-[[(1S,2S)-6-Chloro-2-[(3R)-3-(dimethylamino)piperidin-1-yl]-4-methyl-2,3-dihydro-1H-inden-1-yl]oxy]benzene)sulfonamido]ethoxy]ethoxy)ethyl]-1-[4-([[2-(2-[2-[(4-[[(1S,2S)-6-chloro-2-[(3R)-3-(dimethylamino)piperidin-1-yl]-4-methyl-2,3-dihydro-1H-inden-1-yl]oxy]benzene)sulfonamido]ethoxy]ethoxy)ethyl]carbamoyl]amino)butyl]urea; bis(trifluoroacetic acid)]
C (>70%) | C (>70%) | C (NHE3 pIC50 > 7) | C (NHE3 pIC50 > 7) | Cc1cc(S(=O)(=O)NCCOCCOCCNC(=O)NCCCCNC(=O)NCCOCCOCCNS(=O)(=O)c2ccc(O[C@H]3c4cc(Cl)cc(C)c4C[C@@H]3N3CCC[C@@H](N(C)C)C3)c(C)c2)ccc1O[C@H]1c2cc(Cl)cc(C)c2C[C@@H]1N1CCC[C@@H](N(C)C)C1 [Example 29]
C (>70%) | C (>70%) | C (NHE3 pIC50 > 7) | C (NHE3 pIC50 > 7) | Cc1cc(Cl)cc2c1C[C@H](N1CCC[C@@H](N(C)C)C1)[C@H]2Oc1ccc(S(=O)(=O)NCCOCCOCCNC(=O)NCCCCNC(=O)NCCOCCOCCNS(=O)(=O)c2ccc(O[C@H]3c4cc(Cl)cc(C)c4C[C@@H]3N3CCC[C@@H](N(C)C)C3)c(F)c2)cc1F [Example 30, 3-[2-(2-[2-[(4-[[(1S,2S)-6-Chloro-2-[(3R)-3-(dimethylamino)piperidin-1-yl]-4-methyl-2,3-dihydro-1H-inden-1-yl]oxy]-3-fluorobenzene)sulfonamido]ethoxy]ethoxy)ethyl]-1-[4-([[2-(2-[2-[(4-[[(1S,2S)-6-chloro-2-[(3R)-3-(dimethylamino)piperidin-1-yl]-4-methyl-2,3-dihydro-1H-inden-1-yl]oxy]-3-fluorobenzene)sulfonamido]ethoxy]ethoxy)ethyl]carbamoyl]amino)butyl]urea; bis(trifluoroacetic acid)]
C (>70%) | C (>70%) | – | – | O=C(NCCCCNC(=O)NCCOCCOCCNS(=O)(=O)c1ccc(O[C@H]2c3cc(Cl)cc(Cl)c3C[C@@H]2N2CCNCC2)cc1)NCCOCCOCCNS(=O)(=O)c1ccc(O[C@H]2c3cc(Cl)cc(Cl)c3C[C@@H]2N2CCNCC2)cc1 [Example 31, 3-[2-(2-[2-[(4-[[(1S,2S)-4,6-Dichloro-2-(piperazin-1-yl)-2,3-dihydro-1H-inden-1-yl]oxy]benzene)sulfonamido]ethoxy]ethoxy)ethyl]-1-[4-([[2-(2-[2-[(4-[[(1S,2S)-4,6-dichloro-2-(piperazin-1-yl)-2,3-dihydro-1H-inden-1-yl]oxy]benzene)sulfonamido]ethoxy]ethoxy)ethyl]carbamoyl]amino)butyl]urea; bis(trifluoroacetic acid)]

Compound | % inhibition (NHE3 [1]) | % inhibition (NHE3 [2]) | pIC50 (NHE3 [1]) | pIC50 (NHE3 [2])
3-[2-(2-[2-[(4-[[(1S,2S)-4,6-Dichloro-2-[(3R)-3-[methyl(propan-2-yl)amino]piperidin-1-yl]-2,3-dihydro-1H-inden-1-yl]oxy]benzene) sulfonamido]ethoxy]ethoxy)ethyl]-1-[4-([[2-(2-[2-[(4-[[(1S,2S)-4,6-dichloro-2-[(3R)-3-[methyl(propan-2-yl)amino]piperidin-1-yl]-2,3-dihydro-1H-inden-1-yl]oxy]benzene)sulfonamido]ethoxy]ethoxy)ethyl]carbamoyl]amino)butyl]urea; bis(trifluoroacetic acid) [Example 78] | C (>70%) | C (>70%) | – | –
